In patent US20120157401A1, “METHODS FOR TREATING NEUROFIBROMATOSIS” (PTC Therapeutics, Inc., priority 2009, published 2012):

The compounds below were run on hypoxia-inducible endogenous VEGF expression (assay: Hypoxia-inducible endogenous VEGF expression ELISA in HeLa cells, dose-response EC50 (Table 3)). Conditions: Homo sapiens, HeLa, read-out: ELISA EC50 μM.
Format: cell-based, human
How it was run: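 HeLa cells kept 24-48 h under hypoxia (1% O2, 5% CO2, nitrogen balance) with or without compound, e.g. seven concentrations; secreted VEGF in conditioned medium quantified by ELISA against a standard curve. Parallel Cell Titer Glo viability under identical conditions excludes cytotoxicity.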
For `CN1CCC(OCCCOc2ccc(C3c4[nH]c5ccc(Cl)cc5c4CCN3C(=O)Oc3ccc(Cl)cc3)cc2)CC1` (stereo not drawn) [Compound 1554], the EC50 was > 1 µM. In the case of `CC(=O)N1CCN(CC(O)COc2ccc(C3c4[nH]c5ccc(Cl)cc5c4CCN3C(=O)Oc3ccc(F)cc3)cc2)CC1` (stereo not drawn) [Compound 637], the EC50 is reported as < 0.008 µM. `O=C(Oc1ccc(Cl)cc1)N1CCc2c([nH]c3ccc(Cl)cc23)[C@@H]1c1ccc(OC2CCN(CCN3CCOCC3)CC2)cc1` [Compound 1682] was tested, and the EC50 was < 0.008 µM. For `O=C(Oc1ccc(Cl)cc1)N1CCc2c([nH]c3ccc(Cl)cc23)C1c1ccc(OCCCCCCN2CCOCC2)cc1` (stereo not drawn) [Compound 786], the EC50 was < 0.008 µM. With `O=C(OCCN1CCOCC1)N1CCC(Oc2ccc([C@H]3c4[nH]c5ccc(Cl)cc5c4CCN3C(=O)Oc3ccc(Cl)cc3)cc2)CC1` [Compound 1693] the EC50 was < 0.008 µM. `CN1CCN(Cc2cnc(Oc3ccc([C@H]4c5[nH]c6ccc(Cl)cc6c5CCN4C(=O)Oc4ccc(Cl)cc4)cc3)s2)CC1` [Compound 1661] was tested, and the EC50 was < 0.008 µM. With `COc1ccc(OC(=O)N2CCc3c([nH]c4ccc(Cl)cc34)C2c2ccc(OCC3CCCN(C)C3)cc2)cc1` (stereo not drawn) [Compound 981] the EC50 was 0.04 to 0.2 µM. `O=C(Oc1ccc(Cl)cc1)N1CCc2c([nH]c3ccc(Cl)cc23)C1c1ccc(OCCCN(CCO)CCO)cc1` (stereo not drawn) [Compound 1184] was tested, and the EC50 was < 0.008 µM. With `O=C(Oc1ccc(Cl)cc1)N1CCc2c([nH]c3ccc(Cl)cc23)[C@@H]1c1ccc(Oc2ncc(CN3CCOCC3)s2)cc1` [Compound 1660] the EC50 was < 0.008 µM. `O=C(Oc1ccc(Cl)cc1)N1CCc2c([nH]c3ccc(Cl)cc23)C1c1ccc(OCCCN2CCSCC2)cc1` (stereo not drawn) [Compound 933] was tested, and the EC50 was < 0.008 µM. `CN(C)CCN(C)CCCOc1ccc([C@H]2c3[nH]c4ccc(Cl)cc4c3CCN2C(=O)Oc2ccc(Cl)cc2)cc1` [Compound 1611] was tested, and the EC50 was < 0.008 µM. With `COc1ccc(OC(=O)N2CCc3c([nH]c4ccc(Cl)cc34)C2c2ccc(OCCCN(C)C)cc2)cc1` (stereo not drawn) [Compound 501] the EC50 was 0.04 to 0.2 µM. With `CN1CCC(Oc2ccc([C@H]3c4[nH]c5ccc(Cl)cc5c4CCN3C(=O)Oc3ccc(Cl)cc3)cc2)CC1` [Compound 1694] the EC50 was < 0.008 µM. With `O=C(Oc1ccc(Cl)cc1)N1CCc2c([nH]c3ccc(Cl)cc23)C1c1ccc(OCCCOCCN2CCOCC2)cc1` (stereo not drawn) [Compound 1555] the EC50 was < 0.008 µM. In the case of `CN(C)CC(=O)Nc1ccc(C2c3[nH]c4ccc(Cl)cc4c3CCN2C(=O)Oc2ccc(Cl)cc2)cc1` (stereo not drawn) [Compound 491], the EC50 is reported as 0.04 to 0.2 µM. Compound `COc1cc(C2c3[nH]c4ccc(Cl)cc4c3CCN2C(=O)Oc2ccc(Cl)cc2)ccc1OCCN1CCOCC1` (stereo not drawn) [Compound 1092] has an EC50 of 0.008 to 0.04 µM. `COc1ccc(C2c3[nH]c4ccc(Cl)cc4c3CCN2C(=O)Oc2ccc(Cl)cc2)cc1OCCCCN1CCOCC1` (stereo not drawn) [Compound 1097] gave an EC50 of 0.04 to 0.2 µM. In the case of `COCCN1CCN(C(=O)COc2ccc(C3c4[nH]c5ccc(Cl)cc5c4CCN3C(=O)Oc3ccc(OC)cc3)cc2)CC1` (stereo not drawn) [Compound 1025], the EC50 is reported as 0.04 to 0.2 µM.

Same assay, conditions: Homo sapiens; HeLa cells, hypoxic conditions (1% O2), 24-48 hours, VEGF in conditioned media; read-out: ELISA EC50
With `CC1(C)OC[C@@H](COc2ccc([C@H]3c4[nH]c5ccc(Cl)cc5c4CCN3C(=O)Oc3ccc(Cl)cc3)cc2)O1` [Compound 1260] the EC50 was < 0.008 µM. Compound `O=C(Oc1ccc([N+](=O)[O-])cc1)N1CCc2c([nH]c3ccc(Cl)cc23)C1c1ccc(OCC(O)CO)cc1` (stereo not drawn) [Compound 632] has an EC50 of 0.008 to 0.04 µM. For `C=CCOc1ccc([C@H]2c3[nH]c4ccc(Cl)cc4c3CCN2C(=O)Oc2ccc(Cl)cc2)cc1` [Compound 1159], the EC50 was < 0.008 µM. With `O=C(Oc1ccc(Cl)cc1)N1CCc2c([nH]c3ccc(Br)cc23)C1c1ccc(C(F)(F)F)cc1` (stereo not drawn) [Compound 405] the EC50 was < 0.008 µM. For `COc1ccc(OC(=O)N2CCc3c([nH]c4ccc(Br)cc34)[C@@H]2c2ccc(Cl)cc2)cc1` [#332], the EC50 was > 1 µM. Compound `COc1ccc(OC(=O)N2CCc3c([nH]c4ccc(Cl)cc34)C2c2ccc(OCC(O)CO)cc2)cc1` (stereo not drawn) [Compound 635] has an EC50 of 0.008 to 0.04 µM. In the case of `Cc1ccc(OC(=O)N2CCc3c([nH]c4ccc(Cl)cc34)[C@@H]2c2ccc(OCC[C@H](O)CO)cc2)cc1` [Compound 1292], the EC50 is reported as < 0.008 µM. For `O=C(Nc1ccc(C2c3[nH]c4ccc(Cl)cc4c3CCN2C(=O)Oc2ccc(Cl)cc2)cc1)c1ccco1` (stereo not drawn) [Compound 437], the EC50 was < 0.008 µM. In the case of `CC1(C)OCC(COc2ccc([C@H]3c4[nH]c5ccc(Cl)cc5c4CCN3C(=O)Oc3ccc(Cl)cc3)cc2)CO1` [Compound 1207], the EC50 is reported as < 0.008 µM. For `O=C(Oc1ccc(Cl)cc1)N1CCc2c([nH]c3ccc(Cl)cc23)C1c1ccc(OCC(O)CO)cc1` (stereo not drawn) [Compound 629], the EC50 was < 0.008 µM. With `O=C(Oc1ccccc1Cl)N1CCc2c([nH]c3ccc(Cl)cc23)C1c1ccc(OCCCCl)cc1` (stereo not drawn) [Compound 713] the EC50 was 0.008 to 0.04 µM. For `COC(=O)NCC(O)COc1ccc(C2c3[nH]c4ccc(Cl)cc4c3CCN2C(=O)Oc2ccc(Cl)cc2)cc1` (stereo not drawn) [Compound 848], the EC50 was < 0.008 µM. For `O=C(Oc1ccc(F)cc1)N1CCc2c([nH]c3ccc(Cl)cc23)C1c1ccc(OCCCn2ccnc2)cc1` (stereo not drawn) [Compound 889], the EC50 was < 0.008 µM. `COc1cc(C2c3[nH]c4ccc(Cl)cc4c3CCN2C(=O)Oc2ccc(C)cc2)ccc1OCCCn1nccn1` (stereo not drawn) [Compound 1194] was tested, and the EC50 was < 0.008 µM. In the case of `O=C(Oc1ccc(F)cc1)N1CCc2c([nH]c3ccc(Cl)cc23)C1c1ccc(OCCCCCCCl)cc1` (stereo not drawn) [Compound 723], the EC50 is reported as < 0.008 µM. Work on `O=C(Oc1ccc(F)cc1)N1CCc2c([nH]c3ccc(Cl)cc23)C1c1ccc(OCCn2ccnn2)cc1` (stereo not drawn) [Compound 833] yielded an EC50 of 0.04 to 0.2 µM. `COc1ccc(C2c3[nH]c4ccc(Cl)cc4c3CCN2C(=O)Oc2ccc(Cl)cc2)c(F)c1` (stereo not drawn) [Compound 1269] was tested, and the EC50 was < 0.008 µM. `CC(=O)NCC(O)CCOc1ccc([C@H]2c3[nH]c4ccc(Cl)cc4c3CCN2C(=O)Oc2ccc(Cl)cc2)cc1` (stereo partly drawn) [Compound 1276] was tested, and the EC50 was < 0.008 µM. `O=C(Oc1ccc(F)cc1)N1CCc2c([nH]c3ccc(Cl)cc23)C1c1ccc(OCC(O)CO)cc1` (stereo not drawn) [Compound 627] was tested, and the EC50 was < 0.008 µM. With `Cc1cnc(NCCOc2ccc(C3c4[nH]c5ccc(Cl)cc5c4CCN3C(=O)Oc3ccc(F)cc3)cc2)s1` (stereo not drawn) [#838] the EC50 was < 0.008 µM.

Same assay, conditions: Homo sapiens; HeLa cells, hypoxic conditions (1% O2), VEGF ELISA of conditioned media; read-out: ELISA EC50
In the case of `CCOC(=O)NCC(O)COc1ccc(C2c3[nH]c4ccc(Cl)cc4c3CCN2C(=O)Oc2ccc(Cl)cc2)cc1` (stereo not drawn) [Compound 1562], the EC50 is reported as 0.008 to 0.04 µM. With `N#CCOc1ccc(C2c3[nH]c4ccc(Cl)cc4c3CCN2C(=O)Oc2ccc(F)cc2)cc1` (stereo not drawn) [Compound 1548] the EC50 was 0.008 to 0.04 µM. In the case of `O=C(Oc1ccc(Cl)cc1)N1CCc2c([nH]c3ccc(Cl)cc23)[C@@H]1c1ccc(OCc2cn(C3OC(CO)C(O)C(O)C3O)nn2)cc1` (stereo partly drawn) [Compound 1674], the EC50 is reported as 0.2 to 1 µM. With `[H]/N=c1\sccn1CCOc1ccc(C2c3[nH]c4ccc(Cl)cc4c3CCN2C(=O)Oc2ccc(F)cc2)cc1` (stereo not drawn) [Compound 1391] the EC50 was < 0.008 µM. For `[H]/N=c1\sc(C)cn1CCOc1ccc(C2c3[nH]c4ccc(Cl)cc4c3CCN2C(=O)Oc2ccc(F)cc2)cc1` (stereo not drawn) [Compound 1392], the EC50 was < 0.008 µM. With `Cc1cc(NCCOc2ccc(C3c4[nH]c5ccc(Cl)cc5c4CCN3C(=O)Oc3ccc(Cl)cc3)cc2)on1` (stereo not drawn) [Compound 1419] the EC50 was 0.008 to 0.04 µM. Compound `COc1ccc(OC(=O)N2CCc3c([nH]c4ccc(Cl)cc34)C2c2ccc(OCC#N)cc2)cc1` (stereo not drawn) [Compound 1549] has an EC50 of 0.008 to 0.04 µM. In the case of `O=C(Oc1ccc(Cl)cc1)N1CCc2c([nH]c3ccc(Cl)cc23)[C@@H]1c1ccc(Oc2ccc3ccccc3n2)cc1` [Compound 1572], the EC50 is reported as < 0.008 µM. `[H]/N=c1\sc(C)cn1CCOc1ccc(C2c3[nH]c4ccc(Cl)cc4c3CCN2C(=O)Oc2ccc(Cl)cc2)cc1` (stereo not drawn) [Compound 1394] was tested, and the EC50 was < 0.008 µM. `O=C(Oc1ccc(Cl)cc1)N1CCc2c([nH]c3ccc(Br)cc23)C1c1ccc(OCC[C@H](O)CO)cc1` (stereo partly drawn) [Compound 1349] was tested, and the EC50 was < 0.008 µM.
